Test results published in paper PMC5073322, “Novel Natural Product-like Caged Xanthones Bearing a Carbamate Moiety Exhibit Antitumor Potency and Anti-Angiogenesis Activity In vivo” (Scientific Reports, 2016).
Values after ≈ are worked out from the molar mass of the structure shown. One block for each compound: values may come before it.

Tests used:
[1] = tested on: A549/cisplatin; assay: MTT antiproliferative assay, cisplatin-resistant A549; format: cell-based; conditions: Homo sapiens, MTT, 72 h, read-out: IC50 A549/cisplatin
Procedure: (§1) The inhibition of tumour cell growth was measured by a modified tetrazolium (MTT) salt assay, as previously described[39]. Cells were cultured in a 96-well plate and treated with culture medium alone or different concentrations of the compounds. The cells were incubated for 72 h, and then, the MTT assay reagent was added. After a 4 h incubation, the formazan product was quantitated at 570 nm. The IC50 values (the concentrations that gave rise to 50% inhibition of cell viability) were calculated using GraphPad Prism 6 using a variable slope (four parameters).

[2] = Water solubility by HPLC; format: physicochemical; conditions: thermodynamic from solid; deionized water, stirred overnight, HPLC 290 nm; read-out: S, water solubility
From the text: The physicochemical characteristics of compounds directly determine their potential drug-like properties. Assessing a compound’s physicochemical properties before performing in vivo evaluations can guide further studies and minimize the time and cost associated with drug discovery. Therefore, parallel to the in vivo study, these solubilities of these compounds in water were experimentally measured using high-performance liquid chromatography (HPLC). Based on the results of full wave scanning, 290 nm was chosen as the maximum absorption wavelength for HPLC detection.
A HPLC system with an ultraviolet (UV) detector was used to detect the solubility of the compounds. The optimal wavelength was 290 nm. Ethanol/water (85:15) was an efficient eluent at a flow rate of 0.5 mL/min. The compounds were stirred in deionized water overnight to maximize the retention of the compounds in solution. Then, the solutions were filtered and the supernatant was used as a fluid sample for HPLC detection. The permeability (Pe) of some of the compounds was tested with the help of a standard PAMPA (pION), as previously reported. PAMPA was performed on a PAMPA Explorer instrument (pION, Inc., Woburn, MA) with the PAMPA Explorer command software (Version 3.7.4.1). The compounds were diluted to 10 mM with the system solution buffer (pH 7.4). Then, 150 μL of the diluted compound solution was transferred to a UV plate, and the UV spectrum was collected and used as a reference. Then, paint the membrane with 5 μL of gastrointestinal tract (GIT) lipid. The acceptor chamber was filled with 200 μL of acceptor solution buffer, and the donor chamber was filled with 200 μL of diluted compound solution. The PAMPA sandwich was assembled and left at 25 °C for 4 h. The UV spectra (240–500 nm) from the donor and the acceptor were collected. The permeability coefficient was calculated with the PAMPA Explorer Command software (Version 3.7.4.1) based on the area under the curve (AUC) of the reference plate, the donor plate, and the acceptor plate. The permeability coefficient of the compound was tested for four times, and the data are shown as the average values. Ketoprofen (4.5×10^−6 cm/s) and propranolol (112.8×10^−6 cm/s) were used as the standards in this assay.

[3] = tested on: MDA-MB-231; assay: MTT antiproliferative assay, MDA-MB-231; conditions: Homo sapiens, MDA-MB-231, 72 h, read-out: IC50 MDA-MB-231
Procedure: as §1

[4] = tested on: HepG2, HCT116, MDA-MB-231 and A549 cells; assay: MTT antiproliferative assay, cell line panel
Procedure: as §1

[5] = tested on: A549; assay: MTT antiproliferative assay, A549; conditions: Homo sapiens, A549, 72 h, read-out: IC50 A549
Procedure: as §1

[6] = tested on: A549/taxol; assay: MTT antiproliferative assay, Taxol-resistant A549; format: cell-based; conditions: MTT, 72 h; Taxol-resistant A549; read-out: IC50 A549/taxol
Procedure: as §1

[7] = tested on: HCT116; assay: MTT antiproliferative assay, HCT116; conditions: Homo sapiens, HCT-116, 72 h, read-out: IC50 HCT116
Procedure: as §1

[8] = tested on: HepG2; assay: MTT antiproliferative assay, HepG2; conditions: Homo sapiens, HepG2, 72 h, read-out: IC50 HepG2
Procedure: as §1

[9] = tested on: Heps tumour; design: method as in PMID 25958244; conditions: Heps-transplanted mice, intravenous (IV) administration; cited from earlier work
[10] = molecular target: Recombinant human Hsp90 protein; assay: Hsp90 ATPase activity assay; format: biochemical; conditions: ADP detection, ATP 100 μM
From the text: Lianru Zhang, Brian S. J. Blagg, et al. reported that GA inhibited Hsp90 ATPase in vitro[21][38]. The effects of these compounds on Hsp90 ATPase activity were examined by measuring the ability of Hsp90 to hydrolyse ATP using a homogeneous time-resolved fluorescence (HTRF) assay to determine whether the caged-xanthone-derivatives of GA inhibited Hsp90. […] The inhibition of Hsp90 could decrease client protein levels. Based on the enzymatic, structural, and antiproliferative results, 8n was chosen for further investigation.
Figure 9 (A) The caged compounds (50 μM) inhibited the Hsp90 ATPase activity in a HTRF-based inhibition assay. (B) The IC50 values for the inhibition of Hsp90 ATPase by 8n, 8o and GA as detected by the HTRF Transcreener ADP kit. […] The amount of ADP generated was detected. […] (D) The mRNA expression of VEGF was determined by real-time quantitative reverse-transcriptase polymerase chain reaction (RT-PCR) and analysed by the delta Ct method. […]
To measure the Hsp90 ATPase activity, a ADP Hunter Plus Assay kit from DiscoverX was used as previously described. […] Then, the plate was incubated for another 0.5 h after the addition of ATP (100 μM), followed by addition of the detection reagent, and the fluorescence was measured at an excitation wavelength 540 nm and emission wavelength of 620 nm using a spectrophotometer (Varioskan multimode, Thermo). […]

[11] = tested on: HepG2 tumours; assay: HepG2 hepatoblastoma xenograft in nude mice; format: in vivo; conditions: control groups of the IV study, dose not given
Procedure: Given the in vitro anti-tumour cell activity of 8n, we continued to evaluate its in vivo effect in hepatoblastoma xenograft models using previously reported methods, and the water-soluble anti-cancer drug 5-fluorouracil (5-FU) was used as a positive control. After tumours were established, the mice were IV injected with 2.5, 5, 10 or 50 mg/kg 8n; the lead compound DDO-6101 and antitumour drug 5-FU were used as controls. All mice had normal weights and quality of life in in vivo tests. […] The in vivo activity of 8n was also evaluated after oral administration. […] This observation may be attributed to the improved physicochemical properties of 8n compared to those of DDO-6101, such as aqueous solubility and cell membrane permeability, which were provided by modification with the carbamate moiety.
Figure 7 (A) The tumour diameters were measured and used to calculate the tumour volumes. The HepG2 xenograft-bearing mice were intravenously injected with 2.5, 5, 10 and 50 mg/kg 8n for 20 days. (B) After 20 days, mice were sacrificed and the individual tumours were weighed. *p < 0.05, […]; Student’s t-test (n = 6). (C) The tumour diameters were measured and used to calculate the tumour volumes. The HepG2 xenograft-bearing mice were orally administered 50 mg/kg 8n, 50 mg/kg DDO-6101 or 10 mg/kg 5-FU for 20 days.
All studies were performed in compliance with the relevant guidelines and regulations. Tumours on female nude mice were established by injecting 1×10^7 HepG2 cells on the dorsal surface. After four weeks, tumours of approximately 150 mm^3 were cut into pieces that were 3 mm×3 mm×3 mm in size and were then implanted in the dorsal surface of other female nude mice. One week later, mice implanted with xenografts of 100 mm^3 were selected, randomized, and […] injected with 2.5, 5, or 10-mg/kg 8n or vehicle daily for another three weeks. The tumour dimensions were measured daily with vernier calipers, and the tumour volumes were calculated using the formula: volume = (width)^2 × length/2.

[12] = design: method as in PMID 23167526; conditions: cited from earlier work

IC50 [1]: 1530 ± 200 nM | solubility [2]: 20 µM (≈ 8.45 µg/mL) | IC50 [3]: 970 ± 90 nM | IC50 ([4]; Homo sapiens, read-out: IC50 values, range over the cancer cell lines): 970 to 1490 nM | IC50 [5]: 3000 ± 800 nM | IC50 [6]: 1620 ± 100 nM | IC50 [7]: 1490 ± 170 nM | IC50 [8]: 1070 ± 90 nM
Compound: CC(=O)Oc1cccc2c1C(=O)C1=CC3CC4C(C)(C)OC(CC=C(C)C)(C3=O)C14O2 (stereo not shown) [Compound 1]

solubility [2]: 10 µM (≈ 3.94 µg/mL) | IC50 [3]: 1800 ± 60 nM | IC50 [7]: 6100 ± 190 nM | IC50 [8]: 8550 ± 430 nM
Compound: COc1cccc2c1C(=O)C1=CC3CC4C(C)(C)OC(CC=C(C)C)(C3=O)C14O2 (stereo not shown) [Compound 3]
fold less active than DDO-6101 ([4]; three cancer cell lines): 4–8 fold

Compound: C/C(=C\CC12OC(C)(C)C3CC(C=C4C(=O)c5c(O)cccc5OC431)C2=O)COC(=O)CN(C)C (stereo not shown) [DDO-6306]
inhibition of tumour growth [9]: 52.6%

Compound: CO[C@H]1/C=C\C=C(/C)C(=O)NC2=CC(=O)C(NCCN(C)C)=C(C[C@@H](C)C[C@H](OC)[C@H](O)[C@@H](C)/C=C(\C)[C@@H]1OC(N)=O)C2=O [Compound 17-DMAG, 17-(Dimethylaminoethylamino)-17-demethoxygeldanamycin]
IC50 [10]: 919 nM

IC50 [1]: 2110 ± 100 nM | solubility [2]: < 5 µM | IC50 [3]: 320 ± 90 nM | IC50 [5]: 2590 ± 170 nM | IC50 [6]: 460 ± 30 nM | IC50 [7]: 710 ± 100 nM | IC50 [8]: 1140 ± 90 nM
Compound: CC(C)=CCC12OC(C)(C)C3CC(C=C4C(=O)c5c(O)cccc5OC431)C2=O (stereo not shown) [DDO-6101, reference compound]
inhibition of the tumour volume, control groups [11]: 36.81%

Compound: O=c1[nH]cc(F)c(=O)[nH]1 [Compound 5-FU, 5-fluorouracil, reference compound]
inhibition of the tumour volume, control groups [11]: 50.95%

Compound: CC(C)=CCC12OC(C)(C)C3[C@@H](CN4CCN(C)CC4)C(C=C4C(=O)c5c(O)cccc5OC431)C2=O (stereo partly shown) [DDO-6267]
oral antitumor activity compared with GA [12]: better oral antitumor activity than GA
